{"source": "patent US20250186448A1", "about": "(Mezzion Pharma Co., Ltd., priority 2021, published 2025)", "key": {"[1]": {"tested_on": "adolescents with Single Ventricle Heart Disease who underwent Fontan palliation", "experiment": "FALD study: liver stiffness by MR elastography", "assay_type": "in vivo, human", "parameters": "MRE, Post Baseline: unit not given beside the values; MRE, Change from Baseline / MRE, Baseline: unit not given here", "method": "MR elastography uses a vibrating passive driver or “paddle” placed on the abdominal wall over the liver in order to generate in vivo shear waves. These shear waves can be tracked using an MRI modified phase contrast pulse sequence. Shear wave data is then used to generate color parameteric maps (elastograms) of liver stiffness that allow quantitative assessment (FIG. 4). […] Pairwise ICCs ranged from 0.67-0.82 when agreement was assessed between individual sequences across manufacturers (GE vs. Philips); the greatest agreement while fixing the pulse sequence was at 1.5 T using 2D GRE sequences (ICC=0.82, r=0.85). Trout […], Kohli R, Sprague […]. Prospective assessment of correlation between US acoustic radiation forced impulse and MR elastography in a pediatric population: Dispersion of US shear-wave speed measurement matters. Radiology 2016 December; 282(3): 544-552. The FALD study, ClinicalTrials.gov Identifier: NCT03430583, which is incorporated herein by reference in its entirety, was an open-label extension study that integrated with the FUEL Extension Trial. […] Both the U- cohort and the U+ cohort had liver stiffness measured by ultrasound and MR elastography (where available), and ELF biomarkers analyzed, as described above. […] The primary outcome measure of the FALD study was the range of liver stiffness in adolescents with Single Ventricle Heart Disease who underwent Fontan palliation. Secondary outcome measures included the effect of drug therapy on liver stiffness, and the effect of drug therapy on Enhanced Liver Fibrosis (ELF) score. See Clinical Trials.gov identifier NCT03430583, at p. 3. It is to be understood that present invention contemplates udenafil drug products that are therapeutically equivalent to the udenafil drug products of the present invention."}, "[2]": {"tested_on": "adolescents with Fontan physiology", "experiment": "FUEL trial: peripheral arterial tonometry (EndoPAT), log-transformed reactive hyperemia index (lnRHI)", "assay_type": "in vivo, human", "from_the_text": "Pulse amplitude tonometry (PAT), a FDA-approved method for assessing vascular function, is increasingly being used as an alternative measure of endothelium-dependent dilation in response to reactive hyperemia and flow-mediated dilation (FMD). The PAT device records digital pulse wave amplitude (PWA) using fingertip plethysmography. PWA can be measured continuously during three phases: a quiet baseline period, 5-min forearm occlusion, and reactive hyperemia following cuff release. Unlike FMD, PAT testing is not dependent upon a highly skilled technician and post-test analysis is largely automated. […]\nThe primary outcome was the change in oxygen consumption at peak exercise (max or peak VO2) from baseline to the 26-week visit. […] Safety was monitored through adverse event reports, which were collected according to a pre-specified protocol of study coordinator outreach, and through ad hoc patient and family communication with members of the study team at each site.\nBaseline clinical testing completed before drug initiation included a blood draw to measure brain-type natriuretic peptide (BNP) level, a cardiopulmonary exercise test (CPET) using a standardized cycle ergometer ramp protocol, a standardized echocardiogram, and an assessment of peripheral vascular function using peripheral arterial tonometry (PAT) measured by finger cuff (EndoPAT; Itamar Medical, Israel). […]"}, "[3]": {"tested_on": "adolescents with Fontan physiology", "details": "phase I/II study, cited from earlier work"}, "[4]": {"details": "Cohort U+ (udenafil for 78 weeks), individual subject"}, "[5]": {"details": "Cohort U− (udenafil for 52 weeks), individual subject"}, "[6]": {"details": "individual subject listing, Safety Population"}}, "note": "Where “and” joins values, the source holds several entries; their conditions need not be identical. Equal entries are not always repeated. Entries after “also recorded” stand apart in the source; their conditions may differ.", "data": [{"smiles": "CCCOc1ccc(S(=O)(=O)NCCC2CCCN2C)cc1-c1nc2c(CCC)nn(C)c2c(=O)[nH]1", "note": "(centres unmarked) [Udenafil, udenafil]", "values": [{"measurement": "MRE, % Change from Baseline", "setting": "[1]; [4]", "result": "2.863% and −2.262% and 12.04% and −0.4975% and 7.265% and −14.99% and −24.27% and 16.67% and 18.93% and 0.4975% and −29.4964% and 2.198% and −16.26% and 10.4% and −20.63% and −8.58% and −11.11% and −19.68% and −21.1704% and −12.02% and −6.235%"}, {"measurement": "MRE, Change from Baseline", "setting": "[1]; [4]", "result": "0.15 and −0.1 and 0.49 and −0.03 and 0.98 and 0.34 and −0.52 and −1.59 and 0.81 and 0.03 and −1.64 and 0.1 and −0.86 and 0.7 and −1.05 and −0.58 and −0.67 and −0.98 and −1.23 and −0.59 and −0.26"}, {"measurement": "MRE, Baseline", "setting": "[1]; Cohort U+ (udenafil for 78 weeks), individual subject, Baseline visit", "result": "4.42 and 5.88 and 4.07 and 6.03 (3×) and 4.68 and 3.47 and 6.55 and 4.28 and 5.56 and 3.65 and 4.55 and 5.29 and 6.73 and 5.09 and 6.76 and 4.98 and 5.81 and 4.91 and 4.17 and 5.24"}, {"measurement": "MRE, Post Baseline", "setting": "[1]; Cohort U+ (udenafil for 78 weeks), individual subject, Post Baseline visit (52 week)", "result": "5.39 and 4.32 (2×) and 6.86 and 4.56 and 6 and 5.02 and 2.95 and 4.96 and 5.09 and 6.06 and 3.92 and 4.65 and 4.43 and 7.43 and 4.04 and 6.18 and 5.36 and 4 and 4.58 and 3.91"}, {"measurement": "MRE, % Change from Baseline", "setting": "[1]; [5]", "result": "8.484% and 8.085%"}, {"measurement": "MRE, Change from Baseline", "setting": "[1]; [5]", "result": "0.61 and 0.19"}, {"measurement": "MRE, Post Baseline", "setting": "[1]; Cohort U− (udenafil for 52 weeks), individual subject, Post Baseline visit (52 week)", "result": "7.8 and 2.54"}, {"measurement": "MRE, % Change from Baseline", "setting": "[1]; [6]", "result": "2.488% and −28.79% and 3.632% and −2.018% and −21.1838% and 67.93% and 25.85% and 11.98% and −10.36% and 12.33% and −5.348% and 17.24% and 33.15% and −8% and −7.32%"}, {"measurement": "MRE, Change from Baseline", "setting": "[1]; [6]", "result": "0.1 and −1.48 and 0.15 and −0.11 and −1.36 and 3.05 and 1.22 and 0.72 and −0.43 (2×) and 0.64 and 1 and 1.2 and −0.44 and −0.53"}, {"measurement": "MRE, Post Baseline", "setting": "[1]; individual subject listing, Safety Population, Post Baseline visit", "result": "4.12 and 3.66 and 4.28 and 5.34 and 5.06 (2×) and 7.54 and 5.94 and 6.73 and 3.72 and 5.83 and 2.81 and 7.61 and 6.8 and 4.82 and 6.71"}, {"measurement": "Change in lnRHI (PAT outcome), udenafil vs placebo", "setting": "[2]", "result": "no difference; also recorded: did not reveal a benefit"}, {"measurement": "Tolerability", "setting": "[3]; adolescents with Fontan physiology, all tested dosing regimens", "result": "demonstrated tolerability at all tested dosing regimens"}, {"measurement": "Average serum concentration, compared among dosing regimens", "setting": "[3]; 87.5 mg twice daily", "result": "highest average serum concentration"}, {"measurement": "Dose limiting adverse events", "setting": "[3]; 87.5 mg twice daily", "result": "not associated with dose limiting adverse events"}]}]}
